Test results: publication PMC12090182, “Repurposing of the RIPK1-Selective Benzo[1,4]oxazepin-4-one Scaffold for the Development of a Type III LIMK1/2 Inhibitor” (ACS Chemical Biology, 2025)
Where two headings read alike, the source gives them in different places.

Experiments:
Assay in all cases: biochemical
Assay type in all cases: binding
[1] = molecular target: 468 kinases including some pathogenic mutants (Homo sapiens, UniProt O95382); conditions: ASK2 (Entrez MAP3K6), 100 nM; read-out: Percent Control
[2] = molecular target: 468 kinases including some pathogenic mutants (Homo sapiens, UniProt O95747); conditions: OSR1 (Entrez OXSR1), 100 nM; read-out: Percent Control
[3] = molecular target: 468 kinases including some pathogenic mutants (Homo sapiens, UniProt P00519, F317I); conditions: read-out: Percent Control
468 kinases including some pathogenic mutants (Homo sapiens, UniProt P00519, F317I), sequence (P00519 whole entry F317I): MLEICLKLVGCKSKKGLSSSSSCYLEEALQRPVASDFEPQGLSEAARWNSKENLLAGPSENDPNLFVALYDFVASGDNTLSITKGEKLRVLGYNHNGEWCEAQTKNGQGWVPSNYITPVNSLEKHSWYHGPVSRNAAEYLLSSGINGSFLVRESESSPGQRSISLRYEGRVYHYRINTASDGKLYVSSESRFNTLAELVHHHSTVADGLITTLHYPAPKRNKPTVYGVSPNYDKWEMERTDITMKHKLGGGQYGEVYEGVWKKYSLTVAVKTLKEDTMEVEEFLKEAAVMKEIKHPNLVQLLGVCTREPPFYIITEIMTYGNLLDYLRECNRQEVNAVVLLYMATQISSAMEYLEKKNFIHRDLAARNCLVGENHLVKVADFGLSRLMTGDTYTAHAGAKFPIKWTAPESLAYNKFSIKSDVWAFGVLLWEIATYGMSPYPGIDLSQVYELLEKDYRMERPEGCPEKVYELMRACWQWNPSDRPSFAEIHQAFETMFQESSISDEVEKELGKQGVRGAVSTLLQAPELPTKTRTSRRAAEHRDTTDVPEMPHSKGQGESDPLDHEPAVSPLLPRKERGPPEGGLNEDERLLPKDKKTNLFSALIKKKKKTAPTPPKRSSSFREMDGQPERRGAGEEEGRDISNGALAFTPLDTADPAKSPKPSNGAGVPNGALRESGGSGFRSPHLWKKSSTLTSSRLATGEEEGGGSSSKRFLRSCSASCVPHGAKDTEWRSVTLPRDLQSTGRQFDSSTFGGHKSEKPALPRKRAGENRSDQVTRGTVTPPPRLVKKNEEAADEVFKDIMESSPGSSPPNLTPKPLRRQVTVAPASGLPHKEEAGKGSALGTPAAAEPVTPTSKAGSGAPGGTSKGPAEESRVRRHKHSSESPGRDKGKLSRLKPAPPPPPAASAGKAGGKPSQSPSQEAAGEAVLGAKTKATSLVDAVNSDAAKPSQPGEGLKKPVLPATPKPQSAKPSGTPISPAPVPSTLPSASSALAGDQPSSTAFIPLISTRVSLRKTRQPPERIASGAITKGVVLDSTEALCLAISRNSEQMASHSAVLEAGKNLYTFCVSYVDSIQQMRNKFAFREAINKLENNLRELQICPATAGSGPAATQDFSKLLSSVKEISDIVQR

[4] = molecular target: 468 kinases including some pathogenic mutants (Homo sapiens, UniProt P04629); conditions: TRKA (Entrez NTRK1), 100 nM; read-out: Percent Control
[5] = molecular target: 468 kinases including some pathogenic mutants (Homo sapiens, UniProt P06241); conditions: FYN (Entrez FYN), 100 nM; read-out: Percent Control
[6] = molecular target: 468 kinases including some pathogenic mutants (Homo sapiens, UniProt P07949); conditions: RET (Entrez RET), 1000 nM; read-out: Percent Control
[7] = molecular target: 468 kinases including some pathogenic mutants (Homo sapiens, UniProt P07949, V804M); conditions: read-out: Percent Control
[8] = molecular target: 468 kinases including some pathogenic mutants (Homo sapiens, UniProt P08922); conditions: ROS1 (Entrez ROS1), 100 nM; read-out: Percent Control
[9] = molecular target: 468 kinases including some pathogenic mutants (Homo sapiens, UniProt P21127); conditions: CDC2L1 (Entrez CDK11B), 100 nM; read-out: Percent Control
[10] = molecular target: 468 kinases including some pathogenic mutants (Homo sapiens, UniProt P23458); conditions: read-out: Percent Control
468 kinases including some pathogenic mutants (Homo sapiens, UniProt P23458), sequence (P23458 whole entry, change not shown): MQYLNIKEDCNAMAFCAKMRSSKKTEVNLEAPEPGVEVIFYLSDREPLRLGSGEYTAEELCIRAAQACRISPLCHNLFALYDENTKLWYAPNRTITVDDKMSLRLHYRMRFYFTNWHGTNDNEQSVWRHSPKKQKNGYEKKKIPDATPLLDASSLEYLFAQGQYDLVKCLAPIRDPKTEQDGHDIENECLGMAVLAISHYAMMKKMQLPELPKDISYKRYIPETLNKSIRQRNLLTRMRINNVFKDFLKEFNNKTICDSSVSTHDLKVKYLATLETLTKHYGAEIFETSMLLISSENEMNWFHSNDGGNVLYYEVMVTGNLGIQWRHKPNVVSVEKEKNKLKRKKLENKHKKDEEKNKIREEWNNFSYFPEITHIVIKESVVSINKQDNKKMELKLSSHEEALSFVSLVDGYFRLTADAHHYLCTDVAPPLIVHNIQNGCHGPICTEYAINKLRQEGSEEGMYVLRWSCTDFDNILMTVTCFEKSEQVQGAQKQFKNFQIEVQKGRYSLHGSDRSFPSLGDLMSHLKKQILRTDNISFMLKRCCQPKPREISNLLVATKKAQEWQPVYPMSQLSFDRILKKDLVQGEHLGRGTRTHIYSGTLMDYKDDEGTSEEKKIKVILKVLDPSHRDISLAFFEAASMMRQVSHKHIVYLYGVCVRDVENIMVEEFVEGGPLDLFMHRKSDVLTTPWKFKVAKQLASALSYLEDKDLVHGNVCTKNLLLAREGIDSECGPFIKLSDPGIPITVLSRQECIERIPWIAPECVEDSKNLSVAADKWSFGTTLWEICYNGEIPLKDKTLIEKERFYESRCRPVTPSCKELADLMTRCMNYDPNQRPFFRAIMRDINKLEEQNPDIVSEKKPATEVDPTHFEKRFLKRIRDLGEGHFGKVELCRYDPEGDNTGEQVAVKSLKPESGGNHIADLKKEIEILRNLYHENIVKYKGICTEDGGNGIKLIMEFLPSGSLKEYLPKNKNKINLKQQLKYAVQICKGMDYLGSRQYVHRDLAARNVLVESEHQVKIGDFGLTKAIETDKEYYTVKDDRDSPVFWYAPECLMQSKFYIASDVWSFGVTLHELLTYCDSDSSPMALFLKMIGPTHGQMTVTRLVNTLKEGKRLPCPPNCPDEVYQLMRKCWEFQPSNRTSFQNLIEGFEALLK

[11] = molecular target: 468 kinases including some pathogenic mutants (Homo sapiens, UniProt P29323); conditions: EPHB2 (Entrez EPHB2), 100 nM; read-out: Percent Control
[12] = molecular target: 468 kinases including some pathogenic mutants (Homo sapiens, UniProt P29597); conditions: read-out: Percent Control
468 kinases including some pathogenic mutants (Homo sapiens, UniProt P29597), sequence (P29597 whole entry, change not shown): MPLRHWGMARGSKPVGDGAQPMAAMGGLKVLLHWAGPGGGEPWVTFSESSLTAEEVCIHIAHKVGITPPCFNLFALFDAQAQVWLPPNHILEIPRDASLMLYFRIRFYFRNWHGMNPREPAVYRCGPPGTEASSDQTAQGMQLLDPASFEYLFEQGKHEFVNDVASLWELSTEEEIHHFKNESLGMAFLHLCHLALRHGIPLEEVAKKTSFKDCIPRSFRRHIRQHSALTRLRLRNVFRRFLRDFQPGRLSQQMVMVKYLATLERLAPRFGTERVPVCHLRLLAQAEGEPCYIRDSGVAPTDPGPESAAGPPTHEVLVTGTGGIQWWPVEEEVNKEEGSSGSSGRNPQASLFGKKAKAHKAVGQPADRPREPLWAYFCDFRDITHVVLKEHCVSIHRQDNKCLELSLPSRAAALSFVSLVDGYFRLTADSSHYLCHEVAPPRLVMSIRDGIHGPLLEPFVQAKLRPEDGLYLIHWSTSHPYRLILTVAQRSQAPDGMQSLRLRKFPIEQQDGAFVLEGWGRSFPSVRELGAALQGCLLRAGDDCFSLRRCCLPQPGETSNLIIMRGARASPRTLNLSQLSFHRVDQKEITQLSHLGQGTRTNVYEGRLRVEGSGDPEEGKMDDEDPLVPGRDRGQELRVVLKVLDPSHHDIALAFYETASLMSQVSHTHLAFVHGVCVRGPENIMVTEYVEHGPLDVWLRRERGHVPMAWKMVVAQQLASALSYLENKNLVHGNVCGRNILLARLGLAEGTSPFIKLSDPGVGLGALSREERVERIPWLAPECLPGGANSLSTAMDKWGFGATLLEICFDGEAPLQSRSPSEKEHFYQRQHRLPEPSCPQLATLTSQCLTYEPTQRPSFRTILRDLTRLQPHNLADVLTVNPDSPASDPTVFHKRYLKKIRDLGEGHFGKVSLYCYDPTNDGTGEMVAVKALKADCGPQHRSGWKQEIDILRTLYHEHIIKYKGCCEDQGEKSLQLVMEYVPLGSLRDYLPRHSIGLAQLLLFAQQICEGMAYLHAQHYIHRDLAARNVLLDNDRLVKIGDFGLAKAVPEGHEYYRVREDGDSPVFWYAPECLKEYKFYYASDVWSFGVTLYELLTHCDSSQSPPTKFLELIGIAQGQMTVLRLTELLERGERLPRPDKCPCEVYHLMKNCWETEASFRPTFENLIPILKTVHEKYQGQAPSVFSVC

[13] = molecular target: 468 kinases including some pathogenic mutants (Homo sapiens, UniProt P43403); conditions: ZAP70 (Entrez ZAP70), 1000 nM; read-out: Percent Control
[14] = molecular target: 468 kinases including some pathogenic mutants (Homo sapiens, UniProt P45983); conditions: JNK1 (Entrez MAPK8), 1000 nM; read-out: Percent Control
468 kinases including some pathogenic mutants (Homo sapiens, UniProt P45983), sequence (P45983 whole entry, change not shown): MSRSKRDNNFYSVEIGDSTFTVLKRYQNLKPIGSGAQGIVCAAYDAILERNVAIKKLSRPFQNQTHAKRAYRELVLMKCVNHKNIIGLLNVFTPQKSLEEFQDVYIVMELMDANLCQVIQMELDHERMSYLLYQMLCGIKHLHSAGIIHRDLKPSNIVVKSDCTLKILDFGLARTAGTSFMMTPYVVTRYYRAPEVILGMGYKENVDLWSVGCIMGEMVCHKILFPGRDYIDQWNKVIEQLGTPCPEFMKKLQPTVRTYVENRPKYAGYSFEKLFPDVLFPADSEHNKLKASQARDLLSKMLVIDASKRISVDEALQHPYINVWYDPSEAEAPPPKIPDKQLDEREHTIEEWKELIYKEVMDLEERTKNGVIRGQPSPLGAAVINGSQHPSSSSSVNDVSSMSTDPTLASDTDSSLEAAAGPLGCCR

[15] = molecular target: 468 kinases including some pathogenic mutants (Homo sapiens, UniProt P46734); conditions: MEK3 (Entrez MAP2K3), 100 nM; read-out: Percent Control
[16] = molecular target: 468 kinases including some pathogenic mutants (Homo sapiens, UniProt P54756); conditions: EPHA5 (Entrez EPHA5), 100 nM; read-out: Percent Control
[17] = molecular target: 468 kinases including some pathogenic mutants (Homo sapiens, UniProt P78356); conditions: PIP5K2B (Entrez PIP4K2B), 100 nM; read-out: Percent Control
[18] = molecular target: 468 kinases including some pathogenic mutants (Homo sapiens, UniProt P78362); conditions: SRPK2 (Entrez SRPK2), 1000 nM; read-out: Percent Control
[19] = molecular target: 468 kinases including some pathogenic mutants (Homo sapiens, UniProt Q12852); conditions: DLK (Entrez MAP3K12), 100 nM; read-out: Percent Control
[20] = molecular target: 468 kinases including some pathogenic mutants (Homo sapiens, UniProt Q13188); conditions: MST2 (Entrez STK3), 100 nM; read-out: Percent Control
[21] = molecular target: 468 kinases including some pathogenic mutants (Homo sapiens, UniProt Q15746); conditions: MYLK (Entrez MYLK), 100 nM; read-out: Percent Control
[22] = molecular target: 468 kinases including some pathogenic mutants (Homo sapiens, UniProt Q86UX6); conditions: YANK3 (Entrez STK32C), 100 nM; read-out: Percent Control
468 kinases including some pathogenic mutants (Homo sapiens, UniProt Q86UX6), sequence (Q86UX6 whole entry, change not shown): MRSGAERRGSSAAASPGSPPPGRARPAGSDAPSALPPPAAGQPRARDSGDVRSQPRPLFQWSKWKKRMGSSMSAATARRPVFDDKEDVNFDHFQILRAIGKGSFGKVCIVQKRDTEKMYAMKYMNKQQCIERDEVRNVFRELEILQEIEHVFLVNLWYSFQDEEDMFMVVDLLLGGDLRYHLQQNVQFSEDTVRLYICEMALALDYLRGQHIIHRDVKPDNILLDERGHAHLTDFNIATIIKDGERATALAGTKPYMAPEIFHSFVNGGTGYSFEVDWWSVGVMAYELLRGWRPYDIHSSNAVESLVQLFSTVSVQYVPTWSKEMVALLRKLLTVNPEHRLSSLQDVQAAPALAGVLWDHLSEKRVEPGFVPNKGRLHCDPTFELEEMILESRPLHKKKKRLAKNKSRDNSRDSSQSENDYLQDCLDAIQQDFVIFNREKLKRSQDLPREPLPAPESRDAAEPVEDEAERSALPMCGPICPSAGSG

[23] = molecular target: 468 kinases including some pathogenic mutants (Homo sapiens, UniProt Q8NE63); conditions: HIPK4 (Entrez HIPK4), 100 nM; read-out: Percent Control
468 kinases including some pathogenic mutants (Homo sapiens, UniProt Q8NE63), sequence (Q8NE63 whole entry, change not shown): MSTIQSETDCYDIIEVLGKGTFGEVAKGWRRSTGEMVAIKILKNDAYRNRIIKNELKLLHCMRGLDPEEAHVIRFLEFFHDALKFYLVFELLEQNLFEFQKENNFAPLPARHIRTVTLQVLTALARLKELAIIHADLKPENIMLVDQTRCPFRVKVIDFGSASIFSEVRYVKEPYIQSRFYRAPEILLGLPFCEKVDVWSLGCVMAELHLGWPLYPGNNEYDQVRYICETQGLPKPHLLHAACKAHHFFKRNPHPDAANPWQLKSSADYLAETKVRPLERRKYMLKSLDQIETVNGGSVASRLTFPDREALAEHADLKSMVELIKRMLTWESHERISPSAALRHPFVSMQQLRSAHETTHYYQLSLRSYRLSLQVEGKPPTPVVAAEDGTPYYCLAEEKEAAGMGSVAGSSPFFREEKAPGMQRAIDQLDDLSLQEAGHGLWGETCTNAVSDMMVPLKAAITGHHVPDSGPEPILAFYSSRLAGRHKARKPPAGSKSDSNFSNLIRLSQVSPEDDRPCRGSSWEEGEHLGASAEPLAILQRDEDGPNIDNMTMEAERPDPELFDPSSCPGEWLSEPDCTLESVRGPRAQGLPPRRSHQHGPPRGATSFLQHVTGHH

[24] = molecular target: 468 kinases including some pathogenic mutants (Homo sapiens, UniProt Q8TF76); conditions: HASPIN (Entrez GSG2), 100 nM; read-out: Percent Control
[25] = molecular target: 468 kinases including some pathogenic mutants (Homo sapiens, UniProt Q96NX5); conditions: CAMK1G (Entrez CAMK1G), 100 nM; read-out: Percent Control
[26] = molecular target: 468 kinases including some pathogenic mutants (Homo sapiens, UniProt Q9H093); conditions: SNARK (Entrez NUAK2), 100 nM; read-out: Percent Control
[27] = molecular target: 468 kinases including some pathogenic mutants (Homo sapiens, UniProt Q9NQU5); conditions: PAK6 (Entrez PAK6), 1000 nM; read-out: Percent Control
[28] = molecular target: 468 kinases including some pathogenic mutants (Homo sapiens, UniProt Q9UEW8); conditions: STK39 (Entrez STK39), 100 nM; read-out: Percent Control

SMILES: CN1C(=O)[C@@H](N2CCc3c(nn(Cc4ccccc4)c3C(N)=O)C2=O)COc2cc(Cl)ccc21 [Compound 10, (S)-2-benzyl-6-(8-chloro-5-methyl-4-oxo-2,3,4,5-tetrahydrobenzo[b][1,4]oxazepin-3-yl)-7-oxo-4,5,6,7-tetrahydro-2H-pyrazolo[3,4-c]pyridine-3-carboxamide]
- remaining activity at 0.1 µM [1]: 76%
- remaining activity at 0.1 µM [2]: 100%
- remaining activity at 0.1 µM [3]: 87%
- remaining activity at 0.1 µM [4]: 99%
- remaining activity at 0.1 µM [5]: 71%
- remaining activity at 1 µM [6]: 100%
- remaining activity at 0.1 µM [7]: 87%
- remaining activity at 0.1 µM [8]: 78%
- remaining activity at 0.1 µM [9]: 88%
- remaining activity at 0.1 µM ([10]; JAK1(JH1domain-catalytic) (Entrez JAK1), 100 nM): 83%
- remaining activity at 0.1 µM [10]: 97%
- remaining activity at 0.1 µM [11]: 98%
- remaining activity at 0.1 µM ([12]; TYK2(JH1domain-catalytic) (Entrez TYK2), 100 nM): 72%
- remaining activity at 1 µM [12]: 100%
- remaining activity at 1 µM [13]: 100%
- remaining activity at 1 µM [14]: 100%
- remaining activity at 0.1 µM [15]: 85%
- remaining activity at 0.1 µM [16]: 74%
- remaining activity at 0.1 µM [17]: 55%
- remaining activity at 1 µM [18]: 100%
- remaining activity at 0.1 µM [19]: 72%
- remaining activity at 0.1 µM [20]: 64%
- remaining activity at 0.1 µM [21]: 89%
- remaining activity at 0.1 µM [22]: 86%
- remaining activity at 0.1 µM [23]: 73%
- remaining activity at 0.1 µM [24]: 89%
- remaining activity at 0.1 µM [25]: 72%
- remaining activity at 0.1 µM [26]: 84%
- remaining activity at 1 µM [27]: 100%
- remaining activity at 0.1 µM [28]: 67%
